From patent publication US12421225B2, “Heteroaromatic amide derivative and medicament containing the same” (KAKEN PHARMACEUTICAL CO., LTD., priority 2018, dated 2025)

Legend:
human Nav1.7 = human Nav1.7 (Homo sapiens (Human), UniProt Q15858); test: Human Nav1.7 inhibitory activity evaluation (automated patch clamp QPatch16X, HEK293A cells stably expressing human Nav1.7 and human Navβ1); type: cell-based
In short: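 IC50 calculated from the concentration-response of inward current evoked by the second −10 mV, 50 ms depolarisation, which follows a 15 s conditioning step at roughly 30-40% inactivation and a 100 ms −120 mV interval. Cells: HEK293A expressing human Nav1.7/Navβ1, automated patch clamp, room temperature, 0.1% DMSO final.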

human Nav1.5 = human Nav1.5 (Homo sapiens (Human), UniProt Q14524); test: Human Nav1.5 inhibitory activity evaluation (automated patch clamp QPatch16X, HEK293 cells stably expressing human Nav1.5); type: cell-based
Chain of human Nav1.5 (Q14524 whole entry): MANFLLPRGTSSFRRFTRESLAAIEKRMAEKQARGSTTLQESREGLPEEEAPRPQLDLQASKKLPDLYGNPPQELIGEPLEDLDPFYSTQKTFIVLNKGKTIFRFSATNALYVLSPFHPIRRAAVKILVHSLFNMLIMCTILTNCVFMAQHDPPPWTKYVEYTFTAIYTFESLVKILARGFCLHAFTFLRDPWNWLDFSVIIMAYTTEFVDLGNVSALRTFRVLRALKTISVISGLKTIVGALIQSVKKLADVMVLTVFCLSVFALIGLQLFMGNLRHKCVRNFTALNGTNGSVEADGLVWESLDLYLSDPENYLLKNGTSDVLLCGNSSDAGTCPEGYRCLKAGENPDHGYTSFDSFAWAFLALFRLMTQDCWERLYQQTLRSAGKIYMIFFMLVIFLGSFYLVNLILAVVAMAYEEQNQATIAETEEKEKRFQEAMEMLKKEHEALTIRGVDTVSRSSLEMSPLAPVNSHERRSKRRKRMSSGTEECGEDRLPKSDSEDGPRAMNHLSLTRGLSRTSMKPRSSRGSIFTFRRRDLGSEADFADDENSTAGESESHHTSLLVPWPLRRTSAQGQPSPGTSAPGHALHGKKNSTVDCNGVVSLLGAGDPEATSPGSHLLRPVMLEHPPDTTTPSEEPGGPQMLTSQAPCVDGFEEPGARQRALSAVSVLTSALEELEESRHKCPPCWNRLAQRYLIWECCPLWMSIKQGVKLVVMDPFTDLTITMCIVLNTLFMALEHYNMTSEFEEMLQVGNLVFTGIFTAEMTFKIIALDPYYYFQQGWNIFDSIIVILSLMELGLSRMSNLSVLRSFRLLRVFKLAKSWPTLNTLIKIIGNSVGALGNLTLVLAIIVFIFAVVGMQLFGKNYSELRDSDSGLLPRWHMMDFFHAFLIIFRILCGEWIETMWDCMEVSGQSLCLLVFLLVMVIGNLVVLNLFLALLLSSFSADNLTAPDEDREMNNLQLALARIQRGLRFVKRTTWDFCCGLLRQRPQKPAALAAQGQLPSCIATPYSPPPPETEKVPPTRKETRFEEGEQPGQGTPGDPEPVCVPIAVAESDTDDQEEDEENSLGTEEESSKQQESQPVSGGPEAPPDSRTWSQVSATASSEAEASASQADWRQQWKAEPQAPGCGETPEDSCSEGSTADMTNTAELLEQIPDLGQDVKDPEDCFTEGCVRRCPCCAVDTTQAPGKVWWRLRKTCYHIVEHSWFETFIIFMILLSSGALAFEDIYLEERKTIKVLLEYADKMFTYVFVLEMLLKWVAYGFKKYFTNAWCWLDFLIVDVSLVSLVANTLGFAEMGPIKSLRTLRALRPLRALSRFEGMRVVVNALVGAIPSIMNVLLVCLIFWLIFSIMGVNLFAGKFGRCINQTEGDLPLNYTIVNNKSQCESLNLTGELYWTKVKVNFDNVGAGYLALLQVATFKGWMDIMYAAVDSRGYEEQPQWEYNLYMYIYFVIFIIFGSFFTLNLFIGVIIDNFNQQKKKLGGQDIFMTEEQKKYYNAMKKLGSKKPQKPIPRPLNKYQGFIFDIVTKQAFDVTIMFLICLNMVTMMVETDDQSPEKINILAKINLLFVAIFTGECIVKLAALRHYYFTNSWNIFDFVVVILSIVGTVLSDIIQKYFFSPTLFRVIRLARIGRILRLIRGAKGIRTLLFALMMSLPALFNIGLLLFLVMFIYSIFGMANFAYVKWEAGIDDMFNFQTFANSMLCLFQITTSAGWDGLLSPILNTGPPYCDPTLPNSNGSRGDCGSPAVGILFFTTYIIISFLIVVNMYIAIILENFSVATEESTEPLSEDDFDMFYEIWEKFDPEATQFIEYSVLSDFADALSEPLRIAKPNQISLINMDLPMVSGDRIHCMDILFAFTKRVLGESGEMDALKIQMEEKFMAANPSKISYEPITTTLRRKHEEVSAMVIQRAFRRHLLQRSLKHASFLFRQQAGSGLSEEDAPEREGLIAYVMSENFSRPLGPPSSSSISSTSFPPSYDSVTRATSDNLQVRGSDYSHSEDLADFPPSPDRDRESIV
Method: Test Example 2: Human Nav1.5 Inhibitory Activity Evaluation
A cell line in which human Nav1.5 was stably expressed in HEK293 cells was used. DMEM supplemeted with 15% fetal bovine serum, 500 μg/ml geneticin, 100 units/ml penicillin, 100 μg/ml streptomycin, 20 mM HEPES was used as culture medium under the conditions of 37° C. and 5% CO2 in T175 flasks to carry out culturing. When 60-80% confluence was reached, a cell suspension of about 0.5-5.0×10^6 cells/mL was prepared. The amount of current through human Nav1.5 was recorded using a fully automatic patch clamp device QPatch16X at room temperature. As the extracellular solution, 145 mM NaCl, 4 mM KCl, 1 mM MgCl2, 2 mM CaCl2, 10 mM Glucose, and 10 mM HEPES at pH 7.4 was used. As the intracellular solution, 135 mM CsF, ⅕ mM EGTA/CsOH, 10 mM HEPES, and 10 mM NaCl at pH 7.3 was used. The test compounds were dissolved in DMSO and diluted with the extracellular solution to attend the DMSO concentration of 0.1% at the time of assay.
The current response was obtained at a sampling frequency of 25 kHz, and noise was removed with a 3 kHz low-pass filter. The holding potential was −80 mV. Correction of the leakage current was carried out by applying a step pulse of −100 mV before the test pulse. In order to investigate human Nav1.5 inhibitory effect of the test compound, test pulses imitating the action potential of cardiomyocytes were continuously given 20 times. The test pulses were given before and after the test compound addition.
The inhibitory activity of the test compound was determined based on the amount of inward current generated by the 20th depolarization pulse, and the 50% inhibitory concentration (IC50) was calculated from the concentration-response curve.

[1] = human Nav1.7, automated patch clamp
[2] = human Nav1.5, automated patch clamp
[3] = HEK293A cells stably expressing human Nav1.7 and human Navβ1, automated patch clamp QPatch16X
[4] = HEK293 cells stably expressing human Nav1.5, automated patch clamp QPatch16X

Chain of human Nav1.7 (Q15858 whole entry): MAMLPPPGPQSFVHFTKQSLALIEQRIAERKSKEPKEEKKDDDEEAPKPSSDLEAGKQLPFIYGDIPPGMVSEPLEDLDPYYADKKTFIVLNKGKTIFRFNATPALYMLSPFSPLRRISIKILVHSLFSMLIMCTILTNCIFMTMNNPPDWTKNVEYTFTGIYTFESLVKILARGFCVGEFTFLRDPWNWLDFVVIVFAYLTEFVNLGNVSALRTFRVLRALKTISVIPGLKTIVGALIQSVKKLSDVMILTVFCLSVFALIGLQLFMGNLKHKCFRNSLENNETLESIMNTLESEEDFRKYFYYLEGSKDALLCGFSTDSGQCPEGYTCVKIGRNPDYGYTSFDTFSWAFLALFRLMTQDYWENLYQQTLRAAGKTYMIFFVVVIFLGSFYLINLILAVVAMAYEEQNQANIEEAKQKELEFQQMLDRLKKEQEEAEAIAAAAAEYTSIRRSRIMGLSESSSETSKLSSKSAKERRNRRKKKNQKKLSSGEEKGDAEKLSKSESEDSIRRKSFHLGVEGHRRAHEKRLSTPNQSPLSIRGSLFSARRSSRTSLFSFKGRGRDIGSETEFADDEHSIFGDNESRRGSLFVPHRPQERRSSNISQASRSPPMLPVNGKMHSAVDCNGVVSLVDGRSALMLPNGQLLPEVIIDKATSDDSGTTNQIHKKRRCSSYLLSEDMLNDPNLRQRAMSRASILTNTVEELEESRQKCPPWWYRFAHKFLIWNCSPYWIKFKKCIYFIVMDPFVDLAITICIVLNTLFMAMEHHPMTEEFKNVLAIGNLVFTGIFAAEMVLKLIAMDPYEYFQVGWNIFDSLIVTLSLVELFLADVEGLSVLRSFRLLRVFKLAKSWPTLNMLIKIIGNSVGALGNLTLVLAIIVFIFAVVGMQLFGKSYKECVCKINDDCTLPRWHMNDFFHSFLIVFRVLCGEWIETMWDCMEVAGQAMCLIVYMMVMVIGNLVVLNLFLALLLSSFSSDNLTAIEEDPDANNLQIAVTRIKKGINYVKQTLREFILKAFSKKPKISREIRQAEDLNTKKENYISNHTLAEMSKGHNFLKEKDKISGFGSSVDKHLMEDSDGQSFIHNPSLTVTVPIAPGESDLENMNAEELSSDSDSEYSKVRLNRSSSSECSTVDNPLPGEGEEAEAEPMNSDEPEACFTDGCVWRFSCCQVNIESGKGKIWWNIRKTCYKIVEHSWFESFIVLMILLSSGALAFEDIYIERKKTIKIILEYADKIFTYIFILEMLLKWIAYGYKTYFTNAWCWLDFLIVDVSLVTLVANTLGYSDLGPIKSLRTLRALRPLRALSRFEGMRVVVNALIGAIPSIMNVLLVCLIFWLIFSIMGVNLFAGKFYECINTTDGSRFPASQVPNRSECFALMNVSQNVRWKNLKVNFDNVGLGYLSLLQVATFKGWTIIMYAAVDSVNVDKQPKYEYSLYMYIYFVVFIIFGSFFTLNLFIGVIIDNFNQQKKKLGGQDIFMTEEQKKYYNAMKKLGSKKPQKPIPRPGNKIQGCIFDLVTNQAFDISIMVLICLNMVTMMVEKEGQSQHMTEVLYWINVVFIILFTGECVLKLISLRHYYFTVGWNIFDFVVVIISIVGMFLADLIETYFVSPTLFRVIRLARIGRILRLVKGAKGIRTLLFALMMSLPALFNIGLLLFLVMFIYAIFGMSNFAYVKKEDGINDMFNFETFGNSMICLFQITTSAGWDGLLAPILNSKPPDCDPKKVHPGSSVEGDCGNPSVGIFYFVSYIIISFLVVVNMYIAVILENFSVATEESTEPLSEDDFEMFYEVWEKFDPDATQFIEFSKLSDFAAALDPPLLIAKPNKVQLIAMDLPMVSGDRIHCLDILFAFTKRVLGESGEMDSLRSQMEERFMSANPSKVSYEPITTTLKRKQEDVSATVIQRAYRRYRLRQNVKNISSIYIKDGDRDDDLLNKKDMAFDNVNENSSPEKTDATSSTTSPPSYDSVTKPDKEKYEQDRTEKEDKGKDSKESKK
Chain of human Nav1.7 (Q07699 19-218 partner): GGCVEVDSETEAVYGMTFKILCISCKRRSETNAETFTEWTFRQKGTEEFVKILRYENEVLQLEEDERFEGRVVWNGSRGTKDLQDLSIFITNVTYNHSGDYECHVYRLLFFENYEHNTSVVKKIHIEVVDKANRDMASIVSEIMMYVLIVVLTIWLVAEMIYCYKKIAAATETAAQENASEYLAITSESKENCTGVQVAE

| IC50 (human Nav1.7; [1]) [nM] | IC50 (human Nav1.7; [3]) [nM] | Structure (SMILES) | IC50 (human Nav1.5; [2]) [nM] | IC50 (human Nav1.5; [4]) [nM] |
| --- | --- | --- | --- | --- |
| < 1000 |  | N#Cc1ccc2c(c1)C(F)[C@@H](NC(=O)c1cc3n(n1)CCC(COCC1CC1)O3)CO2 (single isomer, unassigned) [617 (isomer A)] | ≥ 3000 |  |
|  | < 1000 | O=C(N[C@H]1COc2ccc(COCC(F)(F)F)cc2C1)c1nc2n(c1-c1ccn[nH]1)CCCC2 [Example 20] |  | < 1000 |
| < 10000 |  | Cc1ccc(-c2ccc3c(c2)C[C@@H](NC(=O)c2cc4n(n2)CCC(C(F)(F)F)O4)CO3)cn1 (some centres unmarked) [Example 175] | ≥ 3000 |  |
|  | < 1000 | O=C(N[C@H]1COc2ccc(C(F)F)cc2C1)c1cn2c(n1)CCC(C(F)(F)F)C2 (single isomer, unassigned) [7 (isomer A)] |  | 1000 to 3000 |
|  | < 1000 | O=C(N[C@H]1COc2ccc(CC(F)F)cc2C1)c1cc2n(n1)CCC(COCC1CC1)O2 (single isomer, unassigned) [109 (isomer A)] |  | 1000 to 3000 |
|  | < 1000 | O=C(N[C@H]1COc2ccc(C(F)F)cc2C1)c1cn2c(n1)CCC(C(F)(F)F)C2 (single isomer, unassigned) [7 (isomer B)] |  | ≥ 3000 |
| < 1000 |  | COC1c2cc(C(F)(F)F)ccc2OC[C@@H]1NC(=O)c1cc2n(n1)CCC(C(F)F)O2 (some centres unmarked) [Example 568] | ≥ 3000 |  |
| < 10000 |  | O=C(N[C@H]1COc2cccc(Cl)c2C1)c1cc2n(n1)CCN(CCC(F)(F)F)C2 [Example 262] | ≥ 3000 |  |
| < 1000 |  | COCc1ccc2c(c1)C[C@@H](NC(=O)c1cc3n(n1)CCC(c1ccccc1F)O3)CO2 (some centres unmarked) [Example 361] | ≥ 3000 |  |
| < 1000 |  | N#Cc1ccc2c(c1)C[C@@H](NC(=O)c1cc3n(n1)CC(CCOC(F)(F)F)O3)CO2 (some centres unmarked) [Example 208] | < 1000 |  |
| < 1000 |  | N#Cc1ccc2c(c1)C[C@@H](NC(=O)c1cc3n(n1)CCC(CCOC(F)F)O3)CO2 (single isomer, unassigned) [146 (isomer B)] | ≥ 3000 |  |
| < 10000 |  | N#Cc1ccc2c(c1)C[C@@H](NC(=O)c1cc3n(n1)CC(CSCC(F)(F)F)O3)CO2 (single isomer, unassigned) [200 (isomer A)] | ≥ 3000 |  |
| < 1000 |  | O=C(N[C@H]1COc2ccc(Cl)cc2C1)c1cc2n(n1)CC(CCn1cccn1)O2 (some centres unmarked) [Example 451] | 1000 to 3000 |  |
| < 10000 |  | Cn1cc(-c2ccc3c(c2)C[C@@H](NC(=O)c2cc4n(n2)CC(CCOC(F)F)O4)CO3)cn1 (some centres unmarked) [Example 220] | 1000 to 3000 |  |
| < 1000 |  | O=C(N[C@H]1COc2ccc(COCC(F)(F)F)cc2C1)c1cc2n(n1)CC(COCC(F)(F)F)O2 (single isomer, unassigned) [188 (isomer A)] | < 1000 |  |
| < 1000 |  | O=C(N[C@H]1COc2ccc(C(F)(F)F)cc2C1)c1cc2n(n1)CC(CCNCC(F)(F)F)O2 (single isomer, unassigned) [230 (isomer A)] | ≥ 3000 |  |
| < 1000 |  | O=C(N[C@H]1COc2ccc(C(F)(F)F)cc2C1)c1cc2n(n1)CCN(CCOC1CCC1)C2 [Example 265] | ≥ 3000 |  |
| < 10000 |  | N#Cc1ccc2c(c1)C[C@@H](NC(=O)c1cc3n(n1)CCN(CCC1CC1)C3)CO2 [Example 491] | ≥ 3000 |  |
| < 10000 |  | N#Cc1ccc2c(c1)C[C@@H](NC(=O)c1cc3n(n1)CCC(C(F)(F)F)O3)CO2 (some centres unmarked) [Example 373] | ≥ 3000 |  |
| < 1000 |  | O=C(N[C@H]1COc2ccc(COCC(F)(F)F)cc2C1)c1cc2n(n1)CC(CCNCC(F)(F)F)O2 (single isomer, unassigned) [232 (isomer A)] | 1000 to 3000 |  |

| IC50 (human Nav1.7; [1]) [nM] | IC50 (human Nav1.7; [3]) [nM] | Structure (SMILES) | IC50 (human Nav1.5; [2]) [nM] | IC50 (human Nav1.5; [4]) [nM] |
| --- | --- | --- | --- | --- |
| < 1000 |  | O=C(N[C@H]1COc2ccc(COCC(F)(F)F)cc2C1)c1cc2n(n1)CC(COCC(F)(F)F)O2 (single isomer, unassigned) [188 (isomer B)] | ≥ 3000 |  |
| < 10000 |  | CC(C)(CC1CC1)N1CCn2nc(C(=O)N[C@H]3COc4ccc(C#N)cc4C3)cc2C1 [Example 502] | 1000 to 3000 |  |
|  | < 10000 | O=C(N[C@H]1COc2ccc(COC3CCOCC3)cc2C1)c1cc2n(n1)CCC(c1ccccc1F)O2 (some centres unmarked) [Example 84] |  | ≥ 3000 |
| < 1000 |  | N#Cc1ccc2c(c1)C[C@@H](NC(=O)c1cc3n(n1)CC(CCSCC(F)(F)F)O3)CO2 (some centres unmarked) [Example 243] | ≥ 3000 |  |
| < 10000 |  | CC(C)(C)CCC1Cn2cc(C(=O)N[C@H]3COc4ccccc4C3)nc2CN1 (some centres unmarked) [Example 328] | 1000 to 3000 |  |
| < 1000 |  | N#CC1(COCC2CCn3nc(C(=O)N[C@H]4COc5ccc(Cl)cc5C4)cc3O2)CC1 (single isomer, unassigned) [563 (isomer B)] | ≥ 3000 |  |
| < 1000 |  | O=C(N[C@H]1COc2ccc(CC(F)F)cc2C1)c1cc2n(n1)CC(CCOC(F)F)O2 (single isomer, unassigned) [219 (isomer B)] | 1000 to 3000 |  |
|  | < 1000 | N#Cc1ccc2c(c1)C[C@@H](NC(=O)c1cc3n(n1)CCC(COC(F)(F)F)O3)CO2 (mixture of isomers) [Example 133, N—((R)-6-cyanochroman-3-yl)-5-((trifluoromethoxy)methyl)-6,7-dihydro-5H-pyrazolo[5,1-b][1,3]oxazine-2-carboxamide] |  | 1000 to 3000 |
| < 10000 |  | O=C(N[C@H]1COc2ccc(CC(F)F)cc2C1)c1cc2n(n1)CCC(C(F)(F)F)O2 (some centres unmarked) [Example 172] | ≥ 3000 |  |
|  | < 10000 | C[C@@H]1CCn2nc(C(=O)N[C@H]3COc4ccc(Cl)cc4C3)cc2O1 [Example 87] |  | ≥ 3000 |
| < 1000 |  | O=C(N[C@H]1COc2ccc(COCC(F)(F)F)cc2C1)c1cc2n(n1)CCC(COC(F)F)O2 (single isomer, unassigned) [140 (isomer B)] | 1000 to 3000 |  |
| < 1000 |  | N#Cc1ccc2c(c1)C[C@@H](NC(=O)c1cc3n(n1)CCC(c1ccc(F)cc1)O3)CO2 (some centres unmarked) [Example 364] | 1000 to 3000 |  |
|  | < 10000 | CC(C)(C)OCC1CCc2nc(C(=O)N[C@H]3COc4ccccc4C3)cn2C1 (some centres unmarked) [Example 34] |  | ≥ 3000 |
| < 1000 |  | N#Cc1ccc2c(c1)C[C@@H](NC(=O)c1cc3n(n1)CC(C(F)(F)COCC1CC1)O3)CO2 (some centres unmarked) [Example 541] | ≥ 3000 |  |
|  | < 1000 | O=C(N[C@H]1COc2ccc(-c3ccccn3)cc2C1)c1cc2n(n1)CCC(COCC(F)(F)F)O2 (single isomer, unassigned) [131 (isomer A)] |  | 1000 to 3000 |
|  | < 1000 | CCOCc1ccc2c(c1)C[C@@H](NC(=O)c1cc3n(n1)CCC(c1ccccc1F)O3)CO2 (some centres unmarked) [Example 83] |  | 1000 to 3000 |
| < 1000 |  | O=C(N[C@H]1COc2ccc(CC(F)F)cc2C1)c1cc2n(n1)CCC(COC1CCC1)O2 (some centres unmarked) [Example 437] | 1000 to 3000 |  |
| < 1000 |  | N#Cc1ccc2c(c1)C[C@@H](NC(=O)c1cc3n(n1)CCC(OC(F)(F)F)CO3)CO2 (stereo partly drawn) [Example 252, N—((R)-6-cyanochroman-3-yl)-6-(trifluoromethoxy)-5,6,7,8-tetrahydropyrazolo[5,1-b][1,3]oxazepine-2-carboxamide] | ≥ 3000 |  |
| < 1000 |  | O=C(N[C@H]1COc2ccc(COCC(F)(F)F)cc2C1)c1cc2n(n1)CCC(COC(F)F)O2 (single isomer, unassigned) [140 (isomer A)] | ≥ 3000 |  |
| < 10000 |  | O=C(NC1COc2cccc(-c3ccccc3)c2C1)c1cn2c(n1)CCC(C(F)(F)F)C2 (centres unmarked) [Example 291] | ≥ 3000 |  |
